Measurements as given in patent US9650339B2, “Inhibitors of histone demethylases” (Gilead Sciences, Inc., priority 2013, dated 2017).

Experiments:
H3K4me3 mark = assay: Histone lysine demethylase immunofluorescence assay, non-transfected U2OS cells; assay type: cell-based; conditions: Homo sapiens, staining of the H3K4me3 mark, 20 hours incubation with compound
How it was run: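 Non-transfected U2OS cells incubated with compounds 20 h in DMEM/5% FBS. Fixed cells immunostained for H3K4me3 with Hoechst counterstain and imaged by high-throughput microscopy. IC50 based on average cellular H3K4me3 staining.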

KDM4A = target: T1, KDM4A (Homo sapiens, UniProt O75164); assay: Histone lysine demethylase immunofluorescence assay, U2OS cells transfected with KDM4A; assay type: cell-based; conditions: U2OS cells transfected with pCMVHA KDM4A; mark detected H3K9me3; 20 hours
T1 construct: Full length; host or cells: U2OS
T1 sequence (O75164 1-1064): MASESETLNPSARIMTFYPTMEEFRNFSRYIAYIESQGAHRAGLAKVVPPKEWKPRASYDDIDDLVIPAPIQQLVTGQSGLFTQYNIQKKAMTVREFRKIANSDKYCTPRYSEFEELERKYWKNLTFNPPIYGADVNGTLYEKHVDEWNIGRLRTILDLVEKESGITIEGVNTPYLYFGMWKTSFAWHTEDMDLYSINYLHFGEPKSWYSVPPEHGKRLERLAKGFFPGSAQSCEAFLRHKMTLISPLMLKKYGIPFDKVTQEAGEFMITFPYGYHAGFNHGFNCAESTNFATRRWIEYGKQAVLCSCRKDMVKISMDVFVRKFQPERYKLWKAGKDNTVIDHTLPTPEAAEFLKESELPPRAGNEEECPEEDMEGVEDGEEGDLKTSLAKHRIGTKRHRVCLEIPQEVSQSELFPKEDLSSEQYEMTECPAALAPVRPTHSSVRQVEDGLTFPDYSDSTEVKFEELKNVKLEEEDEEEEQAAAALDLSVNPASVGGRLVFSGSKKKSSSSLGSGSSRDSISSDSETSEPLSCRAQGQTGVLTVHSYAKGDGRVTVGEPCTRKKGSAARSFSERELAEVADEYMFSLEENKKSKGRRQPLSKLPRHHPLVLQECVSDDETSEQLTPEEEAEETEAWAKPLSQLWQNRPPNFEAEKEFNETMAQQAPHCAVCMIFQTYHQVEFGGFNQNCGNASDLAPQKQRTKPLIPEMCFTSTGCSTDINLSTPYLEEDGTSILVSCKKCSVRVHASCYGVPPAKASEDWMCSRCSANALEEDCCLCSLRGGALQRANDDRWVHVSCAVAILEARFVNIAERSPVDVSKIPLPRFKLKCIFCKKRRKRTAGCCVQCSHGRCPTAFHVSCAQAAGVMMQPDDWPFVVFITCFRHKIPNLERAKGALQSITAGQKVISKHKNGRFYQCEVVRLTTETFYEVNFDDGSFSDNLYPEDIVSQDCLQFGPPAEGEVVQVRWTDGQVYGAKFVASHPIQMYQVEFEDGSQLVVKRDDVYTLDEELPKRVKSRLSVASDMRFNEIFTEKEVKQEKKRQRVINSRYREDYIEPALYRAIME
Protocol: U2OS cells were seeded 24 hours before transfection. Transfection was performed with Fugene HD transfection reagent as recommended by the manufacturer. 6 hours after transfection, the cells were harvested and seeded into multi well plates into media containing compound. The media used was DMEM containing 10% FBS and pen/strep. 20 hours after incubation of cells with compounds, the cells were washed in PBS, harvested by fixation with formaldehyde 4% aqueous solution, and washed in PBS. Subsequently, the cells were permeabilized in PBS with 0.2% Triton X-100 for. Blocking was performed in PBS with 0.2% Triton X-100 and 5% FBS. The cells were incubated with primary antibodies in blocking solution over night at 4° C. The primary antibodies used in the assays were HA.11 (Covance, MMS-101P) and the antibody detecting the mark specified in the table below. After incubation with primary antibodies, the cells were washed with PBS, incubated with secondary antibodies (Alexa fluor 594 goat anti rabbit IgG, Invitrogen, A11012; Alexa flour 488 donkey anti mouse IgG, Invitrogen, A21202) and Hoechst, (Sigma, 33342) in blocking solution, and washed again with PBS. Finally, PBS was added and high throughput imaging and analysis were performed by an IN Cell Analyzer 1000 (GE Healthcare). The robot software analyzed individual cells and divided these into HA+ (transfected cells) and HA− (non-transfected cells). The IC50 values were based on an average measure of the staining of the mark specified in the table below in the transfected cells.

Row | SMILES | IC50 (H3K4me3 mark) | IC50 (KDM4A)
1 | COc1ccccc1CN1CCC(NC(=O)CNCc2cc(CNC3CC3)ccn2)CC1 [Compound 20, 2-[({4-[(cyclopropylamino)-methyl]pyridin-2-yl}methyl)amino]-N-{1-[(2-methoxyphenyl)methyl]-piperidin-4-yl}acetamide] | 250 to 2500 nM | > 2500 nM
2 | CCN(CC)CCCCNCc1cc(C2NCCCN2C)ccn1 (stereo not shown) [Compound 68, [4-(diethylamino)butyl]({[4-(1-methyl-1,3-diazinan-2-yl)pyridin-2-yl]methyl})amine] | < 250 nM | 
3 | O=Cc1ccnc(CNCCCCN(Cc2ccccc2)C2CC2)c1 [Compound 109, 2-[({4-[benzyl-(cyclopropyl)amino]-butyl}amino)methyl]-pyridine-4-carbaldehyde] |  | > 2500 nM
